Measurements reported in patent publication US10526291B2, “Potent dual BRD4-kinase inhibitors as cancer therapeutics” (H. Lee Moffitt Cancer Center and Research Institute, Inc., priority 2014, dated 2020).
≈ marks a conversion by molar mass, not a printed value. Where “and” joins values, the source holds several entries; their conditions need not be identical. Equal values may be shown once. Read-outs that look alike come from different tables or passages of the source.

Columns and labels:
[1] = test system: MM.1S cells; assay: MM.1S cell survival, MTT assay; type: cell-based; settings: Homo sapiens, MM1.S, 72 h, 72 hours compound exposure
[2] = target: T1, BRD4 (Homo sapiens, UniProt O60885); assay: Differential Scanning Fluorimetry (DSF), stability of BRD4 upon ligand binding; settings: for IC50: estimated
Protocol: (§1) DSF=Differential Scanning Fluorimetry; provides a measure of the increased stability of BRD4 upon ligand binding The DSF experiment was run at 100 μM protein, 4 μM compound and 2% DMSO.

[3] = test system: SAOS-2; assay: SAOS-2 cell IC50; type: cell-based; settings: Homo sapiens
[4] = target: T2, BRD3 (Homo sapiens, UniProt Q15059); assay: BRD3 IC50 (RB, commercial BRD panel); type: binding
T2 construct: purchased
T2 sequence (Q15059 whole entry): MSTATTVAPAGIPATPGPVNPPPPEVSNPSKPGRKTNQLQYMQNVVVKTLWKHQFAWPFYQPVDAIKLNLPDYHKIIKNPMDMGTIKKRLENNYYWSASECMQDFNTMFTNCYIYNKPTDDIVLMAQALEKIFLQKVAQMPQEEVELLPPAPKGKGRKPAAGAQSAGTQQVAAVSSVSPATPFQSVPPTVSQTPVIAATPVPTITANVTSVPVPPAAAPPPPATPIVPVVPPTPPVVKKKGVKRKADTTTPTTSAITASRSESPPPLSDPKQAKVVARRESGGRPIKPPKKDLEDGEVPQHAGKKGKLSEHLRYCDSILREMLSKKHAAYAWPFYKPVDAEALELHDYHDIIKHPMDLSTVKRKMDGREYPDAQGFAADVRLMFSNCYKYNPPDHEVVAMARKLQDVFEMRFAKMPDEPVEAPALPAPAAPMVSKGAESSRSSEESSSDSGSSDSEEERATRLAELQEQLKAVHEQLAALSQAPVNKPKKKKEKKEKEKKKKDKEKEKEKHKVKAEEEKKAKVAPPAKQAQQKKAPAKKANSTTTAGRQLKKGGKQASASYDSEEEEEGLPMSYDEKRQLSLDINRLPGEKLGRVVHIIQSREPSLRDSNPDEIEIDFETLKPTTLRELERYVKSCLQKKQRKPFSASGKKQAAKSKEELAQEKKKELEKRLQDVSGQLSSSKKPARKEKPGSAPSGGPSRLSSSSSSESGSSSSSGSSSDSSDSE

[5] = target: T3, JAK3 (Homo sapiens, UniProt P52333); assay: JAK3 IC50 (RB, commercial kinase panel); type: biochemical
T3 construct: purchased
T3 sequence (P52333 1-1124): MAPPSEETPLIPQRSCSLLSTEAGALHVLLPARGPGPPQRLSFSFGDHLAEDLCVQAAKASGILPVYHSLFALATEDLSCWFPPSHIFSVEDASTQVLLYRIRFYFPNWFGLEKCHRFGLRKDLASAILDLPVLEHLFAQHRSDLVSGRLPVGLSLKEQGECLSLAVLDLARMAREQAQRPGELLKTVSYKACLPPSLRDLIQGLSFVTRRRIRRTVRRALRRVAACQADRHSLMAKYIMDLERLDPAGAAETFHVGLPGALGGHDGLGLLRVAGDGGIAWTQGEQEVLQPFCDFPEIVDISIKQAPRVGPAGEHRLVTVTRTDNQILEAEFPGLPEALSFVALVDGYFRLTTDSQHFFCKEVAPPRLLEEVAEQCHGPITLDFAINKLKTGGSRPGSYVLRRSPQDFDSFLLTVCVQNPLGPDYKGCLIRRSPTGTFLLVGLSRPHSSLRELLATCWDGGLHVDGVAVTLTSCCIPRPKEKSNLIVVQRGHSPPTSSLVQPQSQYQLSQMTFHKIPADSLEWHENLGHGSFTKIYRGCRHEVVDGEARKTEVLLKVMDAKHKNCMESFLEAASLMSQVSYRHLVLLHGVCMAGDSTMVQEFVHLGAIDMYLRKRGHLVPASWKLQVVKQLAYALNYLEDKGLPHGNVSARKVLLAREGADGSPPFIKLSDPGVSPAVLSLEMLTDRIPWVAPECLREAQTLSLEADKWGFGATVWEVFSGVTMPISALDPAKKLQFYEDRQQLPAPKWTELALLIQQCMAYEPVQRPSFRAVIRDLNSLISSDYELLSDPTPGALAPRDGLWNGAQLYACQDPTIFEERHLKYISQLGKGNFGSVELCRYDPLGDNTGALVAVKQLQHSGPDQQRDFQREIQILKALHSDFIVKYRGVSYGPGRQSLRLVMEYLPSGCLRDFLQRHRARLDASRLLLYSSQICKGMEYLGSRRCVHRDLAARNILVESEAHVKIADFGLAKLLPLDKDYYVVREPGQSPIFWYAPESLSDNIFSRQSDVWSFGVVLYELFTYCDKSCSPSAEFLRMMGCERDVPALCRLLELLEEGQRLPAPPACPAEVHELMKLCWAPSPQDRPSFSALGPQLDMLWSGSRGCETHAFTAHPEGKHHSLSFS

[6] = test system: HEK293; assay: HEK293 cell IC50; type: cell-based; settings: Homo sapiens
[7] = target: T4, JAK1 (Homo sapiens, UniProt P23458); assay: JAK1 IC50 (RB, commercial kinase panel); type: biochemical
T4 construct: purchased
T4 sequence (P23458 whole entry): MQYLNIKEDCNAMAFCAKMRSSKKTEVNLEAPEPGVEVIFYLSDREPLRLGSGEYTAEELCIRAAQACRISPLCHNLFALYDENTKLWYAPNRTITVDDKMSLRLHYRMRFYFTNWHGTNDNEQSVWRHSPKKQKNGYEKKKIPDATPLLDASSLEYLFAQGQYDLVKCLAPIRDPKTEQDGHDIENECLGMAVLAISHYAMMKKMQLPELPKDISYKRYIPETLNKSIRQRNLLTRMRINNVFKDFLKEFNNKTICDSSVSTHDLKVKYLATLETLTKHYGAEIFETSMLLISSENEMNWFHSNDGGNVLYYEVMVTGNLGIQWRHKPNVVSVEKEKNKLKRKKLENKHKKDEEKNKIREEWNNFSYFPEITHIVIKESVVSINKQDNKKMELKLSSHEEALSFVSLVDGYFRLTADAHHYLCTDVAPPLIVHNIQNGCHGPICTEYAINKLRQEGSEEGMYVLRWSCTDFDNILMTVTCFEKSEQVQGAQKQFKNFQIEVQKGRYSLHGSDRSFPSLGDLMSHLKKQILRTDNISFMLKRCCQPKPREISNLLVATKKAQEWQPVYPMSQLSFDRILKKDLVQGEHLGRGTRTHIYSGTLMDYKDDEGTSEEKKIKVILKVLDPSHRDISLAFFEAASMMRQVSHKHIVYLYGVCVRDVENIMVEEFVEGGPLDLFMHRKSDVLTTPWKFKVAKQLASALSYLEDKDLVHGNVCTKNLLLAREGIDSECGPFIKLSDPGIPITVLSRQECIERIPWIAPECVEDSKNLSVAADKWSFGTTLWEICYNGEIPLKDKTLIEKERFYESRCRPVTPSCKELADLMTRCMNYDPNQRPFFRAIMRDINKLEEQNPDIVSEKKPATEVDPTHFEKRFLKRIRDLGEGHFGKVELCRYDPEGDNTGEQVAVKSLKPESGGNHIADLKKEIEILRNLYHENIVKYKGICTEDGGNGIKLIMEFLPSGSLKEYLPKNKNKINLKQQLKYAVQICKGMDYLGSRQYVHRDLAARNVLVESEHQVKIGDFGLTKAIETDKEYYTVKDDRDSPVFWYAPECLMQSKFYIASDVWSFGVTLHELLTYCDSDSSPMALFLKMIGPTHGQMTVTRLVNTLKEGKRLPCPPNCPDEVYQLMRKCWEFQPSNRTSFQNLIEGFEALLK

[8] = target: T5, BRDT (Homo sapiens, UniProt Q58F21); assay: BRDT IC50 (RB, commercial BRD panel); type: binding
T5 construct: purchased

[9] = target: T6, JAK2 (Homo sapiens, UniProt O60674); assay: JAK2 IC50 (RB, commercial kinase panel); type: biochemical
T6 construct: purchased
T6 sequence (O60674 whole entry): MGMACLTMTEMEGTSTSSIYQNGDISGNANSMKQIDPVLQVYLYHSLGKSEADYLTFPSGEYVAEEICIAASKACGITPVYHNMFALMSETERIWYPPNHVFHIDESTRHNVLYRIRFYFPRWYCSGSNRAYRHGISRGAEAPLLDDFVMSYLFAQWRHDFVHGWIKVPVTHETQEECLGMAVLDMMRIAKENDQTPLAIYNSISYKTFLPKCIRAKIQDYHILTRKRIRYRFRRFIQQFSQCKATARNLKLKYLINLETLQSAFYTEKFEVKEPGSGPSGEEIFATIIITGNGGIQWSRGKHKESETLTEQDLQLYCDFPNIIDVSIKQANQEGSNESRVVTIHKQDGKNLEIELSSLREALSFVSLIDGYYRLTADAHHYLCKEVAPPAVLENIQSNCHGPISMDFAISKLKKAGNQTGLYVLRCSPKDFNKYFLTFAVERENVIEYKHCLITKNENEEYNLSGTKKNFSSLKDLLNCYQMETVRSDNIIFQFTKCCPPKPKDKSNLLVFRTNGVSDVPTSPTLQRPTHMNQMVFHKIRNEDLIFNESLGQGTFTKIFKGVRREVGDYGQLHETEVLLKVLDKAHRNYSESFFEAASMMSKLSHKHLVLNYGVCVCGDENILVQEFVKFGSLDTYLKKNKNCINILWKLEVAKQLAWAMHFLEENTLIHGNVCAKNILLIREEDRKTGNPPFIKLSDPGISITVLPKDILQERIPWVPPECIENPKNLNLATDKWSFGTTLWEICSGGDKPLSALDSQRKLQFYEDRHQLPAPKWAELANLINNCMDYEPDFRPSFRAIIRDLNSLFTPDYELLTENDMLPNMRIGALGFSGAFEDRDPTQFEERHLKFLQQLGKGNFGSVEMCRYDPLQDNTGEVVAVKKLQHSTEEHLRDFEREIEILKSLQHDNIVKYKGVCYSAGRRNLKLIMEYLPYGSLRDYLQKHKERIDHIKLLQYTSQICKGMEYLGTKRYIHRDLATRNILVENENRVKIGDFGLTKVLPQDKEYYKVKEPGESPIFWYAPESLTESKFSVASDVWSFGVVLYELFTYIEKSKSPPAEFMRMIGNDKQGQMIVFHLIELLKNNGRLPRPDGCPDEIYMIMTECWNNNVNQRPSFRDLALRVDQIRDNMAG

[10] = target: T1, BRD4; assay: BRD4 IC50 (RB, commercial BRD panel); type: binding
[11] = target: T7, BRD2 (Homo sapiens, UniProt P25440); assay: BRD2 IC50 (RB, commercial BRD panel); type: binding
T7 construct: purchased
T7 sequence (P25440 whole entry): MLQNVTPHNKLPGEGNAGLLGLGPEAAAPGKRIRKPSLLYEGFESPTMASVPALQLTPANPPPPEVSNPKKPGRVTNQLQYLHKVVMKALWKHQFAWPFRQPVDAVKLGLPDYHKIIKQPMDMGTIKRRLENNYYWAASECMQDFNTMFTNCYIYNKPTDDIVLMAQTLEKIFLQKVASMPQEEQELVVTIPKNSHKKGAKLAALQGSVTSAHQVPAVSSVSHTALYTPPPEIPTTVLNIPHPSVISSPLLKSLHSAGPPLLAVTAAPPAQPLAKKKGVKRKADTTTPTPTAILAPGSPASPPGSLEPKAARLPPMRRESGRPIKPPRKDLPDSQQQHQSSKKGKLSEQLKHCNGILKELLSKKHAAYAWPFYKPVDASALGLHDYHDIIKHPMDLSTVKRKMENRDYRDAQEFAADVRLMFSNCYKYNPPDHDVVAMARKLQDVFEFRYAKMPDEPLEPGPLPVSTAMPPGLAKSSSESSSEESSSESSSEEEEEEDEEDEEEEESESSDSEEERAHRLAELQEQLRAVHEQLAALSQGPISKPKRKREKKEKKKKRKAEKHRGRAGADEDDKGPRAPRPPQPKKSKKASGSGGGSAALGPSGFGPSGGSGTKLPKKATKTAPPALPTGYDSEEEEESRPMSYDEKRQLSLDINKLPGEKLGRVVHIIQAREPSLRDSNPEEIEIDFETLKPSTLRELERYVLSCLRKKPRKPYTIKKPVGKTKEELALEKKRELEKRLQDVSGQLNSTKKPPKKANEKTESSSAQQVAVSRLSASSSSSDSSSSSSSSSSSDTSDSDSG

[12] = test system: UKE-1; assay: UKE-1 cell IC50; type: cell-based; settings: UKE1
[13] = test system: MV4-11 AML cells; assay: MV-4-11 cell IC50 (antiproliferative activity); type: cell-based; settings: Homo sapiens
Protocol: Cellular activity of promising compounds is assessed using MM.1S and MV4-11 AML cells using c-Myc levels as biomarker (6-12 hr treatment) and antiproliferative activity (48-72 hr treatment) as described (Ciceri et al., Dual kinase-bromodomain inhibitors for rationally designed polypharmacology. Nat Chem Biol 2014).

[14] = target: T8, FLT3 (Homo sapiens, UniProt P36888); assay: FLT3 IC50 (RB, commercial kinase panel); type: biochemical
T8 construct: purchased
T8 sequence (P36888 27-993): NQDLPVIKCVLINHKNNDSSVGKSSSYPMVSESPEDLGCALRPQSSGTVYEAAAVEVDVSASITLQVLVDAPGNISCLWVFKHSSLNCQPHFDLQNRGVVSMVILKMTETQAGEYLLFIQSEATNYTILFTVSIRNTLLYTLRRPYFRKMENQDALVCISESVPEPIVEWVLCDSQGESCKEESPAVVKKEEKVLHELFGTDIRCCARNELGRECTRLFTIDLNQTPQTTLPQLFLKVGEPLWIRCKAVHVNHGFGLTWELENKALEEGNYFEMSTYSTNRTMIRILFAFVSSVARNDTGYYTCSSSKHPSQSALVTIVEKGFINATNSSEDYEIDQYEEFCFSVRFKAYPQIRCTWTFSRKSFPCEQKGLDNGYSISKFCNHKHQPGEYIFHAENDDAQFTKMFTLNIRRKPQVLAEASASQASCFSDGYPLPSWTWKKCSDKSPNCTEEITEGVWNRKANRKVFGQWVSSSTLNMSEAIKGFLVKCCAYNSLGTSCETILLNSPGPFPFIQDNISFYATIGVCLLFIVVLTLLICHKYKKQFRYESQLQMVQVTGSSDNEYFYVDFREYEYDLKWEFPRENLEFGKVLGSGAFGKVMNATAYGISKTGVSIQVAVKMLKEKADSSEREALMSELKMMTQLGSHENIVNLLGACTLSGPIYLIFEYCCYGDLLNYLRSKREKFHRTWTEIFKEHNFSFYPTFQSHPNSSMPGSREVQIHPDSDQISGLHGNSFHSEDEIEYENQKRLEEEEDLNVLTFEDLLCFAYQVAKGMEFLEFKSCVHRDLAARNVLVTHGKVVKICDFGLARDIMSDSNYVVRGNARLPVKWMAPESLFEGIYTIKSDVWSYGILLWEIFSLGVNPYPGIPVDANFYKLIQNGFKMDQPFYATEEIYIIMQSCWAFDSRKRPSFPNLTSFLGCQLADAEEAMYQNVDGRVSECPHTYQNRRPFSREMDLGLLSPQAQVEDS

[15] = Precipitation in DSF buffer; type: physicochemical
Protocol: as §1

[16] = Solubility in PBS buffer; type: physicochemical
[17] = 100 μM protein, 4 μM compound and 2% DMSO

| Compound | IC50 [1] [nM] | ΔTm at 4 µM [2, 17] [°C] | IC50 [2] | IC50 [6] [nM] | IC50 [9] [nM] | Precipitation in DSF buffer [15] | also measured |
| --- | --- | --- | --- | --- | --- | --- | --- |
| CN1CCN(c2ccc(Nc3nc4c(c(Nc5cccc(NS(=O)(=O)C(C)(C)C)c5)n3)CCCC4)cc2)CC1 | 1700 | 6.9 ± 0.038 | 110 nM | – | – | – | IC50 [3]: 2500 nM |
| COc1cc(Nc2nc(Nc3ccc(N4CCN(C)CC4)cc3)ncc2C)ccc1Cl | 420 | 5.6 ± 0.082 | 290 nM | 380 | 0.69 | – | IC50 [4]: 1140 nM; IC50 [5]: 9.06 nM; IC50 [7]: 1.83 nM; IC50 [8]: 1400 nM; IC50 ([10]; read-out: BRD4 IC50): 617 nM; IC50 ([10]; read-out: BRD4 IC50 (RB)): 617 nM; IC50 [11]: 2800 nM |
| COc1cc(Nc2nc(Nc3ccc(N4CCN(C)CC4)cc3)nc(C)c2C)ccc1Cl | – | 4.1 ± 0.14 | 930 nM | 840 | 14000 | – | – |
| Cc1cnc(Nc2ccc(C3CCN(C)CC3)cc2)nc1Nc1ccc(Cl)c(NS(=O)(=O)C(C)(C)C)c1 | – | 10 ± 0.11 | 7.4 nM and 9.9 nM | – | – | – | DSF ΔTm (° C.) [2, 17]: 10 ± 0.11 10 ± 0.11 °C; IC50 [12]: 470 nM; IC50 [13]: 98 nM |
| Cc1cnc(Nc2ccc(N3CCN(C)CC3)cc2)nc1Nc1ccc(Cl)c(NS(=O)(=O)C(C)(C)C)c1 [drawing 109] | 74 | 9.57 ± 0.086 | 10 nM | – | 11.2 | – | IC50 [4]: 16.5 nM; IC50 [14]: 9.71 nM; IC50 [8]: 27.8 nM; IC50 [3]: 567 nM; IC50 [12]: 512 nM; IC50 [13]: 186 nM; IC50 ([10]; read-out: BRD4 IC50): 4.04 nM; IC50 [11]: 81.4 nM |
| CN1CCN(c2ccc(Nc3ncc(Cl)c(Nc4ccc(Cl)c(NS(=O)(=O)C(C)(C)C)c4)n3)cc2F)CC1 | 110 | 5.22 ± 0.065 | 835 nM | – | – | Precipitation observed in DSF buffer | – |
| COc1cc(Nc2nc(Nc3ccc(N4CCN(C)CC4)cc3)nc(C)c2C)cc(OC)c1OC | 5600 | 5.9 ± 0.14 | 230 nM | 1400 | – | – | – |
| Cc1cnc(Nc2ccc(N3CCN(C)CC3)cc2)nc1Nc1ccc(Cl)c(NS(=O)(=O)C(C)(C)C)c1 [SG3-014B2.MSA] | – | – | – | – | – | – | Solubility ([16]; PBS buffer (15% HPCD)): Solubility > 14.4 mg mg in 1 mL; Solubility ([16]; PBS buffer (~9.3% DMSO)): DMSO) = 0.416 mg mg in 1 mL; Solubility ([16]; aqueous with cosolvent or surfactant or cyclodextrin, PBS buffer (~9.3% DMSO), read-out: Solubility): 650 µM (≈ 354 µg/mL) |
| CN1CCN(c2ccc(Nc3ncc(F)c(Nc4ccc(Cl)c(NS(=O)(=O)C(C)(C)C)c4)n3)cc2F)CC1 | 160 | 0.57 ± 0.124 | 16800 nM | – | – | Precipitation observed in DSF buffer | – |
| Cc1cnc(Nc2ccc(N3CCN(C)CC3)c(C(F)(F)F)c2)nc1Nc1ccc(Cl)c(NS(=O)(=O)C(C)(C)C)c1 | – | 2.46 ± 0.111 | 4950 nM | – | – | Precipitation interferes with the assay | – |
